Key:
Test in all cases: relative viability (nuclei count vs DMSO), 5 days (fraction); higher = more cells survive
[1] = compound: C1CC2=C(C1)C=C(C=C2)OC3=NC(=C4C(=N3)N(C=N4)CC5=CC=C(C=C5)C6=CC=CC=C6)N[C@@H](CC7=CC=CC=C7)CO [QS11] + Cc1cc(Nc2cc(N3CCN(C)CC3)nc(Sc3ccc(NC(=O)C4CC4)cc3)n2)n[nH]1 [Tozasertib] (partner 0.1 µM)
Procedure, shortened: (§1)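 Lung cancer cell lines were seeded in 1536-well plates and dosed by pin tool the next day, with either a single drug or a fixed anchor-drug dose combined with five library-drug doses (not always all listed) spaced in √10 steps. Five days later, one step fixed the cells and stained their nuclei (final 0.05% Triton X-100, 1% formaldehyde, 1 ug/ml Hoechst), and nuclei were counted on 4× images. Relative viability is the nuclei count in treated wells divided by the count in vehicle wells, and each value is the median of duplicate plates.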

[2] = compound: CC1=C(C=C(C=C1)NC(=O)C2=CC(=CC=C2)C(C)(C)C#N)NC3=CC4=C(C=C3)N=CN(C4=O)C [AZ628] + CCNC(=O)c1noc(-c2cc(C(C)C)c(O)cc2O)c1-c1ccc(CN2CCOCC2)cc1 [Luminespib] (partner 0.01 µM)
Procedure, shortened: as §1

[3] = compound: CC1=C(C=C(C=C1)NC(=O)C2=CC(=CC=C2)C(C)(C)C#N)NC3=CC4=C(C=C3)N=CN(C4=O)C [AZ628] + Cc1cc(Nc2cc(N3CCN(C)CC3)nc(Sc3ccc(NC(=O)C4CC4)cc3)n2)n[nH]1 [Tozasertib] (partner 0.1 µM)
Procedure, shortened: as §1

[4] = compound: C[As](C)SC[C@H](NC(=O)CC[C@H](N)C(=O)O)C(=O)NCC(=O)O [Darinaparsin] + NC(=O)Nc1cc(-c2cccc(F)c2)sc1C(=O)N[C@H]1CCCNC1 [AZD7762] (partner 0.2 µM)
Procedure, shortened: as §1

Cell Line	relative viability ([1]; first compound 0.08 µM)	relative viability ([1]; first compound 0.253 µM)	relative viability ([1]; first compound 0.8 µM)	relative viability ([1]; first compound 2.53 µM)	relative viability ([1]; first compound 8 µM)	relative viability ([2]; first compound 0.08 µM)	relative viability ([2]; first compound 0.253 µM)	relative viability ([2]; first compound 0.8 µM)	relative viability ([2]; first compound 2.53 µM)	relative viability ([2]; first compound 8 µM)	relative viability ([3]; first compound 0.08 µM)	relative viability ([3]; first compound 0.253 µM)	relative viability ([3]; first compound 0.8 µM)	relative viability ([3]; first compound 2.53 µM)	relative viability ([3]; first compound 8 µM)	relative viability ([4]; first compound 0.08 µM)	relative viability ([4]; first compound 0.8 µM)	relative viability ([4]; first compound 2.53 µM)	relative viability ([4]; first compound 8 µM)
201T	0.956	1.03	0.694	0.892	0.584	1.07	1.02	1.14	1.05	1.14	0.939	0.861	1.04	0.899	0.89	0.707	0.669	0.527	0.658
A-427	0.21	0.207		0.209	0.201	1.08	0.805	0.76	0.775	0.555	0.155	0.138	0.146	0.142	0.146	0.696	0.681	0.747	0.589
ABC-1	0.191	0.157	0.174	0.168	0.183	0.717	0.699	0.929	0.838	0.536	0.226	0.166	0.215	0.201	0.175	0.747	0.82	0.851	0.968
BEN	0.441	0.529	0.504	0.485	0.486	0.51	0.251	0.485	0.938	0.221	0.511	0.498	0.444	0.471	0.383	0.691	0.729	0.648	0.797
CAL-12T	0.247	0.268	0.299	0.204	0.227	0.591	0.371	0.376	0.465	0.466	0.343	0.366	0.288	0.292	0.182	0.773	0.541	0.694	0.648
COR-L23	0.17	0.177	0.137	0.156	0.141	0.687	0.737	0.709	0.655	0.404	0.186	0.15	0.157	0.146	0.12				
COR-L 105	0.364	0.296	0.335	0.391	0.336	0.828	0.591	0.761	0.86	0.635	0.387	0.374	0.359	0.315	0.376				
ChaGo-K-1	0.232	0.256	0.238	0.216	0.23	0.546	0.642	0.456	0.504	0.461	0.241	0.231	0.218	0.212	0.171	0.979	0.931	0.789	1.03
EKVX	0.369	0.367		0.302	0.457	0.892	0.857	0.946	0.954	0.864	0.396	0.381	0.392	0.467	0.233	0.817	0.739	0.726	0.82
EMC-BAC-2	0.297	0.292	0.279	0.274	0.238	1.22	1.03	1.16	1.07	1.12	0.294	0.335	0.381	0.349	0.362	1.18	1.04	1.28	1.26
EPLC-272H		0.17	0.258	0.248	0.292	0.252	0.2	0.527	0.171	0.235	0.28	0.179	0.289	0.297	0.248	0.206	0.176	0.117	0.215
H3255	0.639	0.853		0.651	0.589	1.03	0.891	0.929	1	0.556	0.863	0.613	0.915	0.62	0.487	0.858	0.915	0.797	1.05
HARA	0.0847	0.117		0.0916	0.102	0.463	0.726	0.548	0.779	0.39	0.144	0.122	0.111	0.0923	0.0666	0.417		0.335	0.371
HCC-15	0.363	0.523	0.385	0.257	0.312	0.262	0.304	0.478	0.361	0.282	0.389	0.491	0.273	0.337	0.135	1.48	1.32	1.11	1.12
HCC-44	1	0.981	0.694	0.792	0.458	1.29	1.08	1.13	0.945	0.767	1.16	0.956	0.941	0.332	0.532	1.02	1.03	1.08	1.05
HCC-78	0.404	0.57	0.401	0.462	0.449						0.445	0.383	0.463	0.346	0.465	0.587	0.706	0.58	0.699
HCC-366	0.133	0.0935		0.0603	0.0521						0.0912	0.0518	0.0747	0.0418	0.0451	0.339		0.222	0.332
HCC-827	0.389	0.416	0.315	0.433	0.457	0.698	0.5	0.588	0.701	0.623	0.43	0.468	0.374	0.494	0.344	0.181	0.211	0.188	0.188
HOP-62	0.363	0.442	0.31	0.281	0.302	0.977	0.865	0.759	0.826	0.475	0.396	0.38	0.362	0.358	0.326	0.669	0.518	0.497	0.782
LC-2-ad	0.445	0.471	0.476	0.507	0.439	1.1	1.08	0.458	1.13	0.926	0.445	0.427	0.548	0.392	0.354	1.07	0.859	0.679	1.02

Cell Line	relative viability ([1]; first compound 0.08 µM)	relative viability ([1]; first compound 0.253 µM)	relative viability ([1]; first compound 0.8 µM)	relative viability ([1]; first compound 2.53 µM)	relative viability ([1]; first compound 8 µM)	relative viability ([2]; first compound 0.08 µM)	relative viability ([2]; first compound 0.253 µM)	relative viability ([2]; first compound 0.8 µM)	relative viability ([2]; first compound 2.53 µM)	relative viability ([2]; first compound 8 µM)	relative viability ([3]; first compound 0.08 µM)	relative viability ([3]; first compound 0.253 µM)	relative viability ([3]; first compound 0.8 µM)	relative viability ([3]; first compound 2.53 µM)	relative viability ([3]; first compound 8 µM)	relative viability ([4]; first compound 0.08 µM)	relative viability ([4]; first compound 0.8 µM)	relative viability ([4]; first compound 2.53 µM)	relative viability ([4]; first compound 8 µM)
LCLC-103H	0.389	0.496	0.358	0.477	0.43	0.971	0.879	0.974	0.94	0.965	0.525	0.52	0.473	0.523	0.384	0.813	0.74	0.727	0.777
LK-2	0.177	0.194	0.181	0.173	0.19	0.224	0.205	0.206	0.187	0.16	0.166	0.167	0.17	0.173	0.165	0.482		0.335	0.581
LOU-NH91	0.67	0.647	0.629	0.597	0.572	0.299	0.396	0.332	0.308	0.293	0.568	0.7	0.7	0.629	0.573	0.808	0.745	0.719	0.775
LU99A	0.269	0.285	0.273	0.296	0.245	0.306	0.283	0.23	0.207	0.183	0.272	0.242	0.265	0.231	0.257	0.455	0.273	0.328	0.383
NCI-H520	0.465	0.454	0.503	0.418	0.407	0.21	0.219	0.209	0.219	0.203	0.407	0.453	0.365	0.422	0.412				
NCI-H661	0.36	0.375	0.299	0.353	0.343	1.03	0.941	0.912	0.961	0.731	0.365	0.409	0.365	0.376	0.42				
NCI-H1563						0.531	0.524	0.519	0.56	0.515									
NCI-H1623	0.449	0.546	0.427	0.466	0.434	0.493	0.432	0.393	0.358	0.395	0.528	0.388	0.406	0.381	0.307				
NCI-H1648		0.577		0.396	0.642						0.624	0.615	0.613	0.539	0.427		0.65		0.691
NCI-H1650	0.244	0.368	0.436	0.358	0.402	0.206	0.18	0.201	0.203	0.206	0.469	0.494	0.337	0.368	0.206				
NCI-H1703																0.199	0.186		0.132
NCI-H1792						0.528	0.372	0.334	0.435	0.192						0.697	0.624		0.797
NCI-H2009	0.756	0.789	0.595	0.58	0.434	0.967	0.957	0.894	0.966	0.38	0.667	0.571	0.599	0.569	0.298				
NCI-H2023	0.381	0.38	0.276	0.222	0.219	0.818	0.76	0.666	0.65	0.653	0.308	0.284	0.235	0.212	0.137				
NCI-H2228	0.195	0.241	0.309	0.296	0.289	0.119	0.133	0.18	0.195	0.14	0.241	0.288	0.239	0.272	0.161				
SK-LU-1	0.293	0.323	0.352	0.312	0.278		0.181	0.231	0.211	0.169		0.275	0.287	0.255	0.283				
SK-MES-1	1.04	0.906	0.833	0.905	0.745	0.848	0.72	0.574	0.598	0.386	0.952	0.875	1.01	0.959	0.443				
SW 1573	0.235	0.138	0.186	0.212	0.197	0.315	0.258	0.16	0.189	0.171	0.203	0.186	0.2	0.135	0.122				
UMC-11	0.174	0.27	0.182	0.181	0.184	1.16	0.999	0.973	0.98	1.17	0.228	0.21	0.194	0.212	0.203				

Reference: the supplement of paper PMC10307832
